# Source: patent publication US20090326003A1, “PYRAZOLO (3, 4-B) PYRIDINE DERIVATIVES AS PDE4 INHIBITORS” (priority 2006, published 2009)
# Counter-ions that a name gives are not always drawn.
# Biological target: T1, PDE4B (human recombinant) (Homo sapiens, UniProt Q07343)
# T1 construct: made in house
# Assay: PDE4B inhibition, fluorescence polarisation (FP) and/or SPA assay
# Assay type: biochemical
# Conditions: n=1 or average of 2 or more readings, accuracy ±about 0.5 log unit, read-out: PDE4B pIC50 (generally in FP assay) (±about 0.5) (converted)
# Text: Human recombinant PDE4B, in particular the 2B splice variant thereof (HSPDE4B2B), is disclosed in WO 94/20079 and also M. M. McLaughlin et al., “A low Km, rolipram-sensitive, cAMP-specific phosphodiesterase from human brain: cloning and expression of cDNA, biochemical characterisation of recombinant protein, and tissue distribution of mRNA”, J. Biol. Chem., 1993, 268, 6470-6476. For example, in Example 1 of WO 94/20079, human recombinant PDE4B is described as being expressed in the PDE-deficient yeast Saccharomyces cerevisiae strain GL62, e.g. after induction by addition of 150 uM CuSO4, and 100,000×g supernatant fractions of yeast cell lysates are described for use in the harvesting of PDE4B enzyme.
# The ability of compounds to inhibit catalytic activity at PDE4B or 4D (human recombinant), PDE3 (from bovine aorta), PDE5 (human recombinant) or PDE6 (from bovine retina) can optionally be determined by Scintillation Proximity Assay (SPA) in a 96-well format.
# Test compounds (as a solution in DMSO, preferably about 2 microliter (ul) volume of DMSO solution) are preincubated at ambient temperature (room temperature, e.g. 19-23° C.) in Wallac Isoplates (code 1450-514) with PDE enzyme in 50 mM Tris-HCl buffer pH 7.5, 8.3 mM MgCl2, 1.7 mM EGTA, 0.05% (w/v) bovine serum albumin for 10-30 minutes (usually 30 minutes). The enzyme concentration is adjusted so that no more than 20% hydrolysis of the substrate defined below occurs in control wells without compound, during the incubation. For the PDE3, PDE4B and PDE4D assays, [5′,8-3H]Adenosine 3′,5′-cyclic phosphate (Amersham Pharmacia Biotech, code TRK.559; or Amersham Biosciences UK Ltd, Pollards Wood, Chalfont St Giles, Buckinghamshire HP8 4SP, UK) is added to give 0.05 uCi per well and about 10 nM final concentration. For the PDE5 and PDE6 assays, [8-^3H]Guanosine 3′,5′-cyclic phosphate (Amersham Pharmacia Biotech, code TRK.392) is added to give 0.05 uCi per well and about 36 nM final concentration. Plates containing assay mixture, preferably approx. 100 ul volume of assay mixture, are mixed on an orbital shaker for 5 minutes and incubated at ambient temperature for 1 hour. Phosphodiesterase SPA beads (Amersham Pharmacia Biotech, code RPNQ 0150) are added (about 1 mg per well) to terminate the assay. Plates are sealed and shaken and allowed to stand at ambient temperature for 35 minutes to 1 hour (preferably 35 minutes) to allow the beads to settle. Bound radioactive product is measured using a WALLAC TRILUX 1450 Microbeta scintillation counter. For inhibition curves, 10 concentrations (e.g. 1.5 nM-30 uM) of each compound are assayed. Curves are analysed using ActivityBase and XLfit (ID Business Solutions Limited, 2 Ocean Court, Surrey Research Park, Guildford, Surrey GU2 7QB, United Kingdom) Results are expressed as pIC50 values.
# The ability of compounds to inhibit catalytic activity at PDE4B (human recombinant) or PDE4D (human recombinant) can optionally be determined by IMAP Fluorescence Polarisation (FP) assay (IMAP Explorer kit, available from Molecular Devices Corporation, Sunnydale, Calif., USA; Molecular Devices code: R8062) in 384-well format.
# The IMAP FP assay is able to measure PDE activity in an homogenous, non-radioactive assay format. The FP assay uses the ability of immobilised trivalent metal cations, coated onto nanoparticles (tiny beads), to bind the phosphate group of FI-AMP that is produced on the hydrolysis of fluorescein-labelled (FI) cyclic adenosine mono-phosphate (FI-cAMP) to the non-cyclic FI-AMP form. […] Binding of FI-AMP product to the beads (coated with the immobilised trivalent cations) slows the rotation of the bound FI-AMP and leads to an increase in the fluorescence polarisation ratio of parallel to perpendicular light. Inhibition of the PDE reduces/inhibits this signal increase. […]
# T1 sequence (Q07343 1-564 isoform Q07343-2): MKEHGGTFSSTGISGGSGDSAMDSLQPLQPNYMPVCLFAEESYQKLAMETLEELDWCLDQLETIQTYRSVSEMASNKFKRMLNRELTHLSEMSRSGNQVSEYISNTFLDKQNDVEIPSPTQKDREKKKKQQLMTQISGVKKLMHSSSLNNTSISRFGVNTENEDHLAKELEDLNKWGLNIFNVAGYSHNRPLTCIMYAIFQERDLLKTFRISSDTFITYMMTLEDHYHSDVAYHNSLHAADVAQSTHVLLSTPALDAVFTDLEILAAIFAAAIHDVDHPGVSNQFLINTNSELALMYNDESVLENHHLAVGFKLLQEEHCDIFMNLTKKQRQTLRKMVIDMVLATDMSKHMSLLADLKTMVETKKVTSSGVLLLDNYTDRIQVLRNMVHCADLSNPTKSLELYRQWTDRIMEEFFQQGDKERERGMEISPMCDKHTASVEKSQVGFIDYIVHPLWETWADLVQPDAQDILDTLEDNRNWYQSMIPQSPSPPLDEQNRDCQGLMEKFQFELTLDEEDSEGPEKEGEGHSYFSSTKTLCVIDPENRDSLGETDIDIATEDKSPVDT
row,SMILES,IC50 [nM]
1,"CCc1nc2c(cnn2CC)c(NC2CCOCC2)c1CNC(=O)CCc1ccc(C(=O)NCc2c(CC)nc3c(cnn3CC)c2NC2CCOCC2)cc1 [Example 1, N-{[1,6-diethyl-4-(tetrahydro-2H-pyran-4-ylamino)-1H-pyrazolo[3,4-b]pyridin-5-yl]methyl}-4-[3-({[1,6-diethyl-4-(tetrahydro-2H-pyran-4-ylamino)-1H-pyrazolo[3,4-b]pyridin-5-yl]methyl}amino)-3-oxopropyl]benzamide]",0.0158 to 0.1
2,"CCc1nc2c(cnn2CC)c(NC2CCOCC2)c1CNC(=O)CCCC(=O)NCc1c(CC)nc2c(cnn2CC)c1NC1CCOCC1 [Example 2, N,N′-bis{[1,6-diethyl-4-(tetrahydro-2H-pyran-4-ylamino)-1H-pyrazolo[3,4-b]pyridin-5-yl]methyl}pentanediamide]",0.126 to 1
3,"CCc1nc2c(cnn2CC)c(NC2CCOCC2)c1CNC(=O)CC(C)(C)CC(=O)NCc1c(CC)nc2c(cnn2CC)c1NC1CCOCC1 [Example 3, N,N′-bis{[1,6-diethyl-4-(tetrahydro-2H-pyran-4-ylamino)-1H-pyrazolo[3,4-b]pyridin-5-yl]methyl}-3,3-dimethylpentanediamide]",0.0158 to 0.1
4,"CCc1nc2c(cnn2CC)c(NC2CCOCC2)c1CNC(=O)c1ccc(Cc2ccc(C(=O)NCc3c(CC)nc4c(cnn4CC)c3NC3CCOCC3)cc2)cc1 [Example 5, 4,4′-methanediylbis(N-{[1,6-diethyl-4-(tetrahydro-2H-pyran-4-ylamino)-1H-pyrazolo[3,4-b]pyridin-5-yl]methyl}benzamide)]",0.0158 to 0.1
5,"CCc1nc2c(cnn2CC)c(NC2CCOCC2)c1CNC(=O)Cc1ccc(CC(=O)NCc2c(CC)nc3c(cnn3CC)c2NC2CCOCC2)cc1 [Example 6, 2,2′-benzene-1,4-diylbis(N-{[1,6-diethyl-4-(tetrahydro-2H-pyran-4-ylamino)-1H-pyrazolo[3,4-b]pyridin-5-yl]methyl}acetamide)]",0.126 to 1
6,"CCc1nc2c(cnn2CC)c(NC2CCOCC2)c1CNC(=O)CCc1ccccc1C(=O)NCc1c(CC)nc2c(cnn2CC)c1NC1CCOCC1 [Example 7, N-{[1,6-diethyl-4-(tetrahydro-2H-pyran-4-ylamino)-1H-pyrazolo[3,4-b]pyridin-5-yl]methyl}-2-[3-({[1,6-diethyl-4-(tetrahydro-2H-pyran-4-ylamino)-1H-pyrazolo[3,4-b]pyridin-5-yl]methyl}amino)-3-oxopropyl]benzamide]",0.0158 to 0.1
7,"CCc1nc2c(cnn2CC)c(NC2CCOCC2)c1CNC(=O)Cc1cccc(CC(=O)NCc2c(CC)nc3c(cnn3CC)c2NC2CCOCC2)c1 [Example 8, 2,2′-benzene-1,3-diylbis(N-{[1,6-diethyl-4-(tetrahydro-2H-pyran-4-ylamino)-1H-pyrazolo[3,4-b]pyridin-5-yl]methyl}acetamide)]",0.126 to 1
8,"CCc1nc2c(cnn2CC)c(NC2CCOCC2)c1CNC(=O)COCC(=O)NCc1c(CC)nc2c(cnn2CC)c1NC1CCOCC1 [Example 9, 2,2′-oxybis(N-{[1,6-diethyl-4-(tetrahydro-2H-pyran-4-ylamino)-1H-pyrazolo[3,4-b]pyridin-5-yl]methyl}acetamide)]",0.126 to 1
9,"CCc1nc2c(cnn2CC)c(NC2CCN(C(N)=O)CC2)c1CNC(=O)C1CCC(C(=O)NCc2c(CC)nc3c(cnn3CC)c2NC2CCN(C(N)=O)CC2)CC1 (stereo not shown) [Example 11, N,N′-bis[(4-{[1-(aminocarbonyl)-4-piperidinyl]amino}-1,6-diethyl-1H-pyrazolo[3,4-b]pyridin-5-yl)methyl]-1,4-cyclohexanedicarboxamide trifluoroacetate]",0.0158 to 0.1
10,"CCc1nc2c(cnn2CC)c(NC2CCN(C(N)=O)CC2)c1CNC(=O)CS(=O)(=O)CC(=O)NCc1c(CC)nc2c(cnn2CC)c1NC1CCN(C(N)=O)CC1 [Example 12, 4,4′-{sulfonylbis[(1-oxo-2,1-ethanediyl)iminomethanediyl(1,6-diethyl-1H-pyrazolo[3,4-b]pyridine-5,4-diyl)imino]}di(1-piperidinecarboxamide) trifluoroacetate]",0.0158 to 0.1
11,"CCc1nc2c(cnn2CC)c(NC2CCN(C(N)=O)CC2)c1CNC(=O)Cc1cccc(C(=O)NCc2c(CC)nc3c(cnn3CC)c2NC2CCN(C(N)=O)CC2)c1 [Example 13, 4-({5-[({[3-({[(4-{[1-(aminocarbonyl)-4-piperidinyl]amino}-1,6-diethyl-1H-pyrazolo[3,4-b]pyridin-5-yl)methyl]amino}carbonyl)phenyl]acetyl}amino)methyl]-1,6-diethyl-1H-pyrazolo[3,4-b]pyridin-4-yl}amino)-1-piperidinecarboxamide trifluoroacetate]",0.126 to 1
12,"CCc1nc2c(cnn2CC)c(NC2CCN(C(N)=O)CC2)c1CNC(=O)CCc1ccc(C(=O)NCc2c(CC)nc3c(cnn3CC)c2NC2CCN(C(N)=O)CC2)cc1 [Example 14, 4-({5-[({3-[4-({[(4-{[1-(aminocarbonyl)-4-piperidinyl]amino}-1,6-diethyl-1H-pyrazolo[3,4-b]pyridin-5-yl)methyl]amino}carbonyl)phenyl]propanoyl}amino)methyl]-1,6-diethyl-1H-pyrazolo[3,4-b]pyridin-4-yl}amino)-1-piperidinecarboxamide trifluoroacetate]",0.0158 to 0.1
13,"CCc1nc2c(cnn2CC)c(NC2CCN(C(N)=O)CC2)c1CNC(=O)Cc1ccc(C(=O)NCc2c(CC)nc3c(cnn3CC)c2NC2CCN(C(N)=O)CC2)cc1 [Example 15, 4-({5-[({[4-({[(4-{[1-(aminocarbonyl)-4-piperidinyl]amino}-1,6-diethyl-1H-pyrazolo[3,4-b]pyridin-5-yl)methyl]amino}carbonyl)phenyl]acetyl}amino)methyl]-1,6-diethyl-1H-pyrazolo[3,4-b]pyridin-4-yl}amino)-1-piperidinecarboxamide trifluoroacetate]",0.0158 to 0.1
14,"CCc1nc2c(cnn2CC)c(NC2CCN(C(N)=O)CC2)c1CNC(=O)COc1ccccc1C(=O)NCc1c(CC)nc2c(cnn2CC)c1NC1CCN(C(N)=O)CC1 [Example 16, 4-[(5-{[({[2-({[(4-{[1-(aminocarbonyl)-4-piperidinyl]amino}-1,6-diethyl-1H-pyrazolo[3,4-b]pyridin-5-yl)methyl]amino}carbonyl)phenyl]oxy}acetyl)amino]methyl}-1,6-diethyl-1H-pyrazolo[3,4-b]pyridin-4-yl)amino]-1-piperidinecarboxamide trifluoroacetate]",0.0158 to 0.1
15,"CCc1nc2c(cnn2CC)c(NC2CCN(C(N)=O)CC2)c1CNC(=O)CCC(=O)NCc1c(CC)nc2c(cnn2CC)c1NC1CCN(C(N)=O)CC1 [Example 17, N,N′-bis[(4-{[1-(aminocarbonyl)-4-piperidinyl]amino}-1,6-diethyl-1H-pyrazolo[3,4-b]pyridin-5-yl)methyl]butanediamide trifluoroacetate]",0.126 to 1
16,"CCc1nc2c(cnn2CC)c(NC2CCN(C(N)=O)CC2)c1CNC(=O)c1ccc(Cc2ccc(C(=O)NCc3c(CC)nc4c(cnn4CC)c3NC3CCN(C(N)=O)CC3)cc2)cc1 [Example 18, 4,4′-{methanediylbis[benzene-4,1-diyl(oxomethanediyl)iminomethanediyl(1,6-diethyl-1H-pyrazolo[3,4-b]pyridine-5,4-diyl)imino]}di(1-piperidinecarboxamide) trifluoroacetate]",0.0158 to 0.1
